Results reported in patent publication US20190142748A1 (priority 2016, published 2019).

Key:
[1] = Chlorambucil stability in aqueous solution (LCMS area percent); format: physicochemical; settings: chlorambucil in water (5% methanol)
[2] = cited from earlier work
[3] = oral; cited from earlier work
[4] = ten patients; cited from earlier work
[5] = biological target: plasma proteins, specifically albumin (Homo sapiens, UniProt P02768); settings: in vitro; cited from earlier work
Chain of plasma proteins, specifically albumin (P02768 25-609): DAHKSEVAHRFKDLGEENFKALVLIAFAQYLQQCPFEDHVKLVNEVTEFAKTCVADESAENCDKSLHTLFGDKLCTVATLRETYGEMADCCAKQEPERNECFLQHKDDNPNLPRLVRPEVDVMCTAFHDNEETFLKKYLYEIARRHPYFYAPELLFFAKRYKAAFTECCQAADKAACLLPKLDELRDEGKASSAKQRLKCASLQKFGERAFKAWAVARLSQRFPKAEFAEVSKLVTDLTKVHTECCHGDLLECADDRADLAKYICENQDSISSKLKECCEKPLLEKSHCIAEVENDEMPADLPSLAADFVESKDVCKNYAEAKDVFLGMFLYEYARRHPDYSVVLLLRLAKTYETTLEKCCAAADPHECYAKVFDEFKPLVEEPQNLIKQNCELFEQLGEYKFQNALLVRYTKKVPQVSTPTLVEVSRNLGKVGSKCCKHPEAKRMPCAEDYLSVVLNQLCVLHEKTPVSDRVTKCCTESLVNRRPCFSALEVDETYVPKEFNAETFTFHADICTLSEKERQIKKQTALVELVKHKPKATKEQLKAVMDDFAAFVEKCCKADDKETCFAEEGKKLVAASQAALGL

SMILES: O=C(O)CCCc1ccc(N(CCCl)CCCl)cc1 [Chlorambucil]
- Chlorambucil (Area %) ([1]; t 0 h): 98.3 Area %
- Chlorambucil (Area %) ([1]; t 1 h): 85.3 Area %
- Chlorambucil (Area %) ([1]; t 2 h): 74.8 Area %
- Chlorambucil (Area %) ([1]; t 3 h): 64.4 Area %
- Chlorambucil (Area %) ([1]; t 4 h): 58.9 Area %
- Chlorambucil (Area %) ([1]; t 5 h): 53.1 Area %
- solubility in acetone and in alcohol ([2]; acetone, alcohol): freely soluble
- solubility in water ([2]; water): practically insoluble
- absorbed from the gastrointestinal tract [3]: > 70%
- increase of median Tmax by food intake [4]: 2 fold
- reduction of dose-adjusted AUC by food intake [4]: 20%
- reduction of dose-adjusted Cmax by food intake [4]: 55%
- bound to plasma proteins [5]: 99%
